Experimental data: patent publication US3978225A, “Heterocyclic homoprostanoidal derivatives” (SmithKline Corporation, priority 1975, dated 1976)

Legend:
prostaglandin synthesis = assay: Inhibition of prostaglandin synthesis (arachidonic acid-dependent formation of adrenochrome from L-epinephrine); type: biochemical; conditions: for Inhibition of prostaglandin synthesis: 1000 μM; for IC50: read-out: ID50, inhibition of prostaglandin synthesis
From the text: The prostaglandin synthesis inhibition method as employed is reported by Takeguchi and Sih, Prastaglandins, 2, 169, 1972. The principle entails the arachidonic acid-dependent formation of adrenochrome from L-epinephrine during prostaglandin biosynthesis. Indomethacin, phenylbutazone and aspirin were used as reference compounds.

[1] = tested on: diarrhea induced by prostaglandin E2 (PGE2); assay: Inhibition of PGE2 diarrhea in mice; type: in vivo; conditions: 15 minutes prior to i.p. PGE2
Method: The antagonism of diarrhea induced by prostaglandin E2 (PGE2) was determined by employing the modified standard animal pharmacological test procedure as reported in Intra Science Chem. Rept 6:1-9, 1972 and Annals of the New York Academy of Sciences 180:386-95, 1971. Briefly the test comprises administering the test compounds subcutaneously 15 minutes prior to an intraperitoneal injection of PGE2. Each animal is examined for diarrhea (which results after the administration of PGE2) every 15 minutes for one hour post-drug. Polyphloretin phosphate and 7 oxa-13-prostynoic acid, both well known antagonists of prostaglandin induced diarrhea, were employed as reference compounds. Results of tests conducted for the inhibition of PGE2 diarrhea in mice are disclosed in Table 2.

Row | Compound | Percent Change, Diarrhea Incidence ([1]; 5 mg/kg S.C.) | Percent Change, Diarrhea Incidence ([1]; 10 mg/kg S.C.) [%] | Percent Change, Diarrhea Incidence ([1]; 20 mg/kg S.C.) [%] | Percent Change, Diarrhea Incidence ([1]; 40 mg/kg S.C.) [%] | IC50 (prostaglandin synthesis) [µM] | also measured
1 | CCCCCCCC[C@@H]1OS(=O)O[C@H]1CCCCCCCC(=O)OC (relative stereo) [Compound C] | +15% | -31 | -54 | -8 |  | Inhibition of prostaglandin synthesis (prostaglandin synthesis): 20%
2 | CCCCCCCC[C@@H]1SC(=S)S[C@H]1CCCCCCCC(=O)O (relative stereo) [Compound E, (8.xi.-trans)-10-thioxo-9,11-dithia-1a-homoprostan-1-oic acid] |  |  |  |  | 390 | 
3 | CCCCCCCC[C@@H]1OCO[C@H]1CCCCCCCC(=O)O (relative stereo) [Compound F, (8.xi.-trans)-9,11-dioxa-1a-homoprostan-1-oic acid] | 0% | -36 | 0 | -14 |  | Inhibition of prostaglandin synthesis (prostaglandin synthesis): 30%
4 | CCCCCCCC[C@@H]1OS(=O)O[C@@H]1CCCCCCCC(=O)OC (relative stereo) [Compound G, (8.xi.-cis)-10-oxo-9,11-dioxa-10-thia-1a-homoprostan-1-oic acid, methyl ester] | -14% | -29 | -57 | 0 |  | 
5 | CCCCCCC#C[C@H]1CCC[C@@H]1OCCCCCC(=O)O [7-oxa-13-prostynoic acid, reference compound] | -100% |  |  |  |  | Percent Change, Diarrhea Incidence ([1]; 0.2 mg/kg S.C.): -15%; Percent Change, Diarrhea Incidence ([1]; 1 mg/kg S.C.): -100%
6 | CC(=O)Oc1ccccc1C(=O)O [Aspirin, reference compound] |  |  |  |  | 3700 | 
7 | COc1ccc2c(c1)c(CC(=O)O)c(C)n2C(=O)c1ccc(Cl)cc1 [Indomethacin, reference compound] |  |  |  |  | 2 | 
8 | CCCCC1C(=O)N(c2ccccc2)N(c2ccccc2)C1=O [Phenylbutazone, reference compound] |  |  |  |  | 875 | 
9 | polyphloretin phosphate [PPP, reference compound] | -4% | -26 | -36 | -65 |  | Percent Change, Diarrhea Incidence ([1]; 80 mg/kg S.C.): -68%
